System: Triticum aestivum
Experiment: In vivo analyses Part B: drought stress, spray application, appearance vs stressed control in categories, Triticum aestivum
Design: key: 0: no positive effect; +: slight positive effect; ++: clear positive effect; +++: strong positive effect
Details: dosage 25 g/ha
Experimental: (§1) Seeds of monocotyledonous and dicotyledonous crop plants were sown in sandy loam in plastic pots, covered with soil or sand and cultivated in a greenhouse under good growth conditions. The test plants are treated at the early leaf stage (BBCH10-BBCH13). To assure uniform water supply before commencement of stress, the potted plants were supplied with water by dam irrigation prior to substance application. The inventive compounds were first formulated as wettable powders (WP) or dissolved in a solvent mixture. The further dilution was effected with water supplemented with 0.2% wetting agent (e.g. agrotin). The finished spray liquor was sprayed onto the green parts of the plant at an equivalent water application rate of 600 l/ha. Substance application was followed immediately by stress treatment of the plants. Drought stress was induced by gradual drying out under the following conditions: “Day”: 14 hours with illumination at ˜26-30° C. “Night”: 10 hours without illumination at ˜18-20° C. The duration of the respective stress phases was guided mainly by the condition of the stressed control plants. It was ended (by re-irrigating and transfer to a greenhouse with good growth conditions) as soon as irreversible damage was observed on the stressed control plants. The end of the stress phase was followed by an about 4-7-day recovery phase, during which the plants were once again kept under good growth conditions in a greenhouse. The duration of the recovery phase was guided mainly by when the trial plants had attained a state which enabled visual scoring of potential effects, and was therefore variable. Once this juncture had been reached, the appearance of the plants treated with test substances was recorded in comparison to the stressed control plants by the following categories: • 0 no positive effect • + slight positive effect • ++ clear positive effect • +++ strong positive effect In order to rule out any influence on the effects observed by any fungicidal or insecticidal action of the test compounds, it was additionally ensured that the tests proceeded without fungal infection or insect infestation. The values reported in tables B-1 and B-2 below are mean values of the results from at least three repeats. Effects of selected compounds of the general formula (I) under drought stress according to the following tables B-1 and B-2: […]

SMILES	Effect (TRZAS)
COc1ccccc1C(=O)N(Cc1ccc(F)cc1F)N(C)C [A8-15]	++
COc1ccccc1C(=O)N(Cc1ncc(C(F)(F)F)cc1Cl)N(C)C [A8-36]	++
COc1ccccc1C(=O)N(Cc1ccc(Cl)nc1)N(C)C [A8-94]	+
CN(C)N(Cc1ccc(Cl)cc1Cl)C(=O)c1ccc(F)cc1C(F)(F)F [A14-5]	+
CN(C)N(Cc1ccc(C(F)(F)F)cc1Cl)C(=O)c1ccc(F)cc1C(F)(F)F [A14-91]	+
CN(C)N(Cc1ccc(Cl)nc1Cl)C(=O)c1ccc(F)cc1C(F)(F)F [A14-99]	+
CN(C)N(Cc1cc(Cl)c(Cl)cc1Cl)C(=O)c1ccc(F)cc1C(F)(F)F [A14-138]	+
CN(C)N(Cc1c(Cl)cc(C(F)(F)F)c(F)c1F)C(=O)c1ccc(F)cc1C(F)(F)F [A14-608]	+
CN(C)N(Cc1ccc(Cl)nc1)C(=O)c1ccc(C(F)(F)F)nc1 [B5-94]	+
CN(C)N(Cc1ccccc1Cl)C(=O)c1ccc(C(F)F)nc1 [B6-1]	++
CN(C1CCCCC1)N(Cc1ccccc1Cl)C(=O)c1cnccc1C(F)(F)F [B18-1]	++
CN(C1CCCCC1)N(Cc1ccccn1)C(=O)c1cnccc1C(F)(F)F [B18-21]	+
CN(C)N(Cc1ccccn1)C(=O)c1cncnc1C(F)(F)F [E1-21]	+

Same assay, conditions: dosage 250 g/ha

SMILES	Effect (TRZAS)
CN(C)N(Cc1ccccc1C(F)(F)F)C(=O)c1ccccc1C(F)(F)F [A1-81]	+
CN(C)N(Cc1ccc(Cl)nc1)C(=O)c1ccccc1C(F)(F)F [A1-94, N-[(6-Chloropyridin-3-yl)methyl]-N′,N′-dimethyl-2-(trifluoromethyl)benzohydrazide]	+
CC(c1ccc(F)cc1)N(C(=O)c1ccccc1C(F)(F)F)N(C)C (stereo not shown) [A1-159]	+
CN(C)N(Cc1cccnc1C#N)C(=O)c1ccccc1C(F)(F)F [A1-679]	+
CCN(CC)N(Cc1cccc(Cl)c1Cl)C(=O)c1ccccc1C(F)(F)F [A2-4, N-(2,3-Dichlorobenzyl)-N′,N′-diethyl-2-(trifluoromethyl)benzohydrazide]	+
CCN(C)N(Cc1nccc(Cl)c1Cl)C(=O)c1ccccc1C(F)(F)F [A5-40]	+
CCN(C)N(Cc1ccccc1C#N)C(=O)c1ccccc1C(F)(F)F [A5-61]	+
CN(C)N(Cc1cccc(Cl)c1)C(=O)c1ccccc1Cl [A10-2]	+
CN(C)N(Cc1ccccc1C(F)(F)F)C(=O)c1ccccc1Cl [A10-81]	+
CN(C)N(Cc1ccc(Cl)nc1)C(=O)c1ccc(Cl)cc1Cl [A12-94]	+
CN(C)N(Cc1ccc(Cl)cc1Cl)C(=O)c1ccccc1I [A36-5]	+
CN(C)N(Cc1c(Cl)cccc1Cl)C(=O)c1ccccc1I [A36-7]	+
CN(C)N(Cc1c(Cl)cc(Cl)cc1Cl)C(=O)c1ccccc1I [A36-10]	+
CN(C)N(Cc1nccc(Cl)c1Cl)C(=O)c1ccccc1I [A36-40]	+
CN(C)N(Cc1ccccc1C#N)C(=O)c1ccccc1I [A36-61]	+
CN(C)N(Cc1ccc(C#N)cc1)C(=O)c1ccccc1I [A36-63]	+
CN(C)N(Cc1ccccc1C(F)(F)F)C(=O)c1ccccc1I [A36-81]	+
CN(C1CCCCC1)N(Cc1ccccn1)C(=O)c1ccccc1C(F)(F)F [A47-21]	+
CN(C)N(Cc1ccccc1Cl)C(=O)c1ccc(Cl)cc1C(F)(F)F [A51-1]	+
CN(C)N(Cc1ccc(Cl)nc1)C(=O)c1cnccc1C(F)(F)F [B1-94]	+
CCN(CC)N(Cc1ccccn1)C(=O)c1cnccc1C(F)(F)F [B2-21, N′,N′-Diethyl-N-(pyridin-2-ylmethyl)-4-(trifluoromethyl)nicotinohydrazide]	+
CN(C)N(Cc1ccccc1Cl)C(=O)c1ccc(C(F)(F)F)nc1 [B5-1]	+
CN(C)N(Cc1ccccn1)C(=O)c1ccc(C(F)F)nc1 [B6-21]	+
CN(C)N(Cc1ccccc1C#N)C(=O)c1ccc(C(F)F)nc1 [B6-61]	+
CCN(C)N(Cc1nccc(Cl)c1Cl)C(=O)c1cnccc1C(F)(F)F [B17-40]	+
CN(C)N(Cc1ccc(Cl)nc1)C(=O)c1cncnc1C(F)(F)F [E1-94]	+
CN(C)N(Cc1ccccc1C#N)C(=O)c1cncnc1C(F)(F)Cl [E3-61]	+

System: Brassica napus
Experiment: In vivo analyses Part B: drought stress, spray application, appearance vs stressed control in categories, Brassica napus
Design: key: 0: no positive effect; +: slight positive effect; ++: clear positive effect; +++: strong positive effect
Details: dosage 25 g/ha
Experimental: as §1

SMILES	Effect (BRSNS)
CN(C)N(Cc1c(F)cccc1F)C(=O)c1ccccc1C(F)(F)F [A1-17]	++
CN(C)N(Cc1cccc(C#N)c1)C(=O)c1ccccc1C(F)(F)F [A1-62]	++
CN(C)N(Cc1ccccc1C(F)(F)F)C(=O)c1ccccc1C(F)(F)F [A1-81]	+
CN(C)N(Cc1cccnc1C#N)C(=O)c1ccccc1C(F)(F)F [A1-679]	+
CN(C)N(Cc1cccc(Cl)c1)C(=O)c1ccccc1Cl [A10-2]	++
CN(C)N(Cc1ccc(Cl)nc1)C(=O)c1ccc(Cl)cc1Cl [A12-94]	+
CN(C)N(Cc1cc(Cl)c(Cl)cc1Cl)C(=O)c1ccc(F)cc1C(F)(F)F [A14-138]	+
CN(C)N(Cc1c(Cl)cc(C(F)(F)F)c(F)c1F)C(=O)c1ccc(F)cc1C(F)(F)F [A14-608]	+
CN(C)N(Cc1ncc(C(F)(F)F)cc1Cl)C(=O)c1ccc(C#N)cc1C(F)(F)F [A48-36]	++
Cc1ccc(C(=O)N(Cc2ncc(C(F)(F)F)cc2Cl)N(C)C)c(C(F)(F)F)c1 [A50-36, N-[3-Chloro-5-(trifluoromethyl)pyridin-2-yl-methyl]-N′,N′-dimethyl-2-(trifluoromethyl)-4-methylbenzohydrazide]	+
Cc1ccc(C(=O)N(Cc2ccccc2C#N)N(C)C)c(C(F)(F)F)c1 [A50-61]	+

Same assay, conditions: dosage 100 g/ha

SMILES	Effect (BRSNS)
CN(C)N(Cc1ncc(C(F)(F)F)cc1Cl)C(=O)c1ccc(Cl)cc1Cl [A12-36]	+

Same assay, conditions: dosage 250 g/ha

SMILES	Effect (BRSNS)
CN(C)N(Cc1ncccn1)C(=O)c1ccccc1C(F)(F)F [A1-27]	++
CN(C)N(Cc1ccc(C#N)cc1)C(=O)c1ccccc1C(F)(F)F [A1-63]	+
COC(=O)c1ccccc1CN(C(=O)c1ccccc1C(F)(F)F)N(C)C [A1-603]	++
CCN(C)N(Cc1nccc(Cl)c1Cl)C(=O)c1ccccc1C(F)(F)F [A5-40]	+
COc1ccccc1C(=O)N(Cc1ccc(F)cc1F)N(C)C [A8-15]	+
CN(C)N(Cc1c(F)cccc1F)C(=O)c1ccccc1Cl [A10-17]	+
CN(C)N(Cc1nccc(Cl)c1Cl)C(=O)c1ccccc1Cl [A10-40]	++
CN(C)N(Cc1ccc(Cl)nc1)C(=O)c1ccccc1Cl [A10-94]	+
CN(C)N(Cc1cccnc1C#N)C(=O)c1ccccc1Cl [A10-679]	++
CN(C)N(Cc1ccc(C(F)(F)F)cc1Cl)C(=O)c1ccc(F)cc1C(F)(F)F [A14-91]	+
CN(C)N(Cc1ccc(Cl)nc1Cl)C(=O)c1ccc(F)cc1C(F)(F)F [A14-99]	+
CN(C)N(Cc1c(Cl)c(Cl)c(C(F)(F)F)c(Cl)c1Cl)C(=O)c1ccc(F)cc1C(F)(F)F [A14-680]	++
CN(C)N(Cc1ccccc1Cl)C(=O)c1ccccc1I [A36-1]	+
CN(C)N(Cc1ccc(Cl)cc1Cl)C(=O)c1ccccc1I [A36-5]	++
CN(C)N(Cc1ncccn1)C(=O)c1ccccc1I [A36-27]	+
CN(C)N(Cc1ccccc1C#N)C(=O)c1ccccc1I [A36-61]	+
CN(C)N(Cc1ccc(Cl)cc1Cl)C(=O)c1cnccc1C(F)(F)F [B1-5]	+++
CN(C)N(Cc1c(Cl)cc(Cl)cc1Cl)C(=O)c1cnccc1C(F)(F)F [B1-10]	+++
CN(C)N(Cc1nccc(Cl)c1Cl)C(=O)c1cnccc1C(F)(F)F [B1-40]	+
CN(C)N(Cc1ccccc1C#N)C(=O)c1cnccc1C(F)(F)F [B1-61]	++
CN(C)N(Cc1ccc(C#N)cc1)C(=O)c1cnccc1C(F)(F)F [B1-63]	+++
CN(C)N(Cc1cccnc1C#N)C(=O)c1cnccc1C(F)(F)F [B1-679]	++
CN(C)N(Cc1ccccn1)C(=O)c1ccc(C(F)(F)F)nc1 [B5-21]	+
CCN(C)N(Cc1ccccc1C#N)C(=O)c1cnccc1C(F)(F)F [B17-61]	+
